Test results taken from patent US5202312A, “Imidazole-containing peptides having immunomodulatory activity” (Tanabe Seiyaku Co., Ltd., priority 1988, dated 1993).
Where a SMILES comes first, the peptide text is derived from it.

Tests used:
[1] = Immunomodulatory effect (general statement, no method)
[2] = system: picryl chloride-induced delayed type hypersensitivity; assay: Inhibitory effect on picryl chloride-induced delayed type hypersensitivity (ear swelling); type: in vivo; settings: BALB/C female mice, oral, once a day for 7 days, dose 10 mg/kg
Protocol: EXPERIMENT 2 Inhibitory effect on picryl chloride-induced delayed type
BALB/C female mice (10-week-old) were sensitized by spreading one ml of an ethanol solution containing 7 w/v % of picryl chloride to abdominal skin of the mice. In a "test group", a test compound was administered orally to the mice a day for 7 days from the day of sensitization.
7 Days after the sensitization, 10 μl of an olive oil solution containing 1 w/v % of picryl chloride was spread to both side skin of left external ear. 24 Hours later, the mice was sacrificed and the thickness of both ears was immediately measured.
The inhibition (%) of swelling of exterernal ear was calculated according to the following formula: [formula]

Structure (SMILES) | immunomodulatory effect [1] | Inhibition (%) of swelling of external ear [2]
COC(=O)[C@H](Cc1c[nH]cn1)NC(=O)[C@H](Cc1ccccc1)NC(=O)[C@H](Cc1ccccc1)NC(C)=O [N-acetyl-L-phenylalanyl-L-phenylalanyl-L-histidine methyl ester] (Ac-Phe-Phe-His-OMe) | scarcely an immunomodulatory effect | 
COC(=O)[C@H](Cc1c[nH]cn1)NC(=O)[C@H](Cc1ccccc1)NC(=O)N(Cc1ccccc1)NC(=O)OC(C)(C)C [Example 13, 3-tert-butoxycarbonyl-2-benzylcarbazoyl-L-phenylalanyl-L-histidine methyl ester] |  | 72.6%
